According to the supplement of paper PMC10307832:

Experiments:
Experiment in all cases: relative viability (nuclei count vs DMSO), 5 days (fraction); higher = more cells survive
CUDC-101 + Vorinostat = compound: C#Cc1cccc(Nc2ncnc3cc(OC)c(OCCCCCCC(=O)NO)cc23)c1 [CUDC-101] + O=C(CCCCCCC(=O)Nc1ccccc1)NO [Vorinostat] (partner 1 µM)
Method in brief: (§1)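 Relative viability equals treated-well nuclei counts divided by vehicle-well nuclei counts. Counts came from 4× images of lung cancer cell lines grown in 1536-well plates for 5 days after pin-tool dosing on the day after seeding. Dosing used one drug alone or a fixed anchor-drug dose plus five library-drug doses (not always all listed) in √10 steps, and values are medians of duplicate plates.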

CUDC-101 + Palbociclib = compound: C#Cc1cccc(Nc2ncnc3cc(OC)c(OCCCCCCC(=O)NO)cc23)c1 [CUDC-101] + CC(=O)c1c(C)c2cnc(Nc3ccc(N4CCNCC4)cn3)nc2n(C2CCCC2)c1=O [Palbociclib] (partner 0.5 µM)
Method in brief: as §1

Vandetanib + OSI-027 = compound: COc1cc2/c(=N/c3ccc(Br)cc3F)nc[nH]c2cc1OCC1CCN(C)CC1 [Vandetanib] + COc1cccc2cc(-c3nc([C@H]4CC[C@H](C(=O)O)CC4)n4ncnc(N)c34)[nH]c12 [OSI-027] (partner 0.5 µM)
Method in brief: as §1

NVP-TAE684 + Olaparib = compound: COc1cc(N2CCC(N3CCN(C)CC3)CC2)ccc1Nc1ncc(Cl)c(Nc2ccccc2S(=O)(=O)C(C)C)n1 [NVP-TAE684] + O=C(c1cc(Cc2n[nH]c(=O)c3ccccc23)ccc1F)N1CCN(C(=O)C2CC2)CC1 [Olaparib] (partner 8 µM)
Method in brief: as §1

Cell Line	relative viability (CUDC-101 + Vorinostat; first compound 0.01 µM)	relative viability (CUDC-101 + Vorinostat; first compound 0.03162 µM)	relative viability (CUDC-101 + Vorinostat; first compound 0.1 µM)	relative viability (CUDC-101 + Vorinostat; first compound 0.3162 µM)	relative viability (CUDC-101 + Vorinostat; first compound 1 µM)	relative viability (CUDC-101 + Palbociclib; first compound 0.01 µM)	relative viability (CUDC-101 + Palbociclib; first compound 0.03162 µM)	relative viability (CUDC-101 + Palbociclib; first compound 0.1 µM)	relative viability (CUDC-101 + Palbociclib; first compound 0.3162 µM)	relative viability (CUDC-101 + Palbociclib; first compound 1 µM)	relative viability (Vandetanib + OSI-027; first compound 0.02 µM)	relative viability (Vandetanib + OSI-027; first compound 0.06325 µM)	relative viability (Vandetanib + OSI-027; first compound 0.2 µM)	relative viability (Vandetanib + OSI-027; first compound 0.6325 µM)	relative viability (Vandetanib + OSI-027; first compound 2 µM)	relative viability (NVP-TAE684 + Olaparib; first compound 0.2 µM)	relative viability (NVP-TAE684 + Olaparib; first compound 0.6325 µM)	relative viability (NVP-TAE684 + Olaparib; first compound 2 µM)
NCI-H1650	0.532	0.352	0.517	0.615	0.41	0.37	0.23	0.294	0.308	0.19	0.621	0.436	0.552	0.452	0.439	0.757	0.758	0.825
NCI-H1703	–	–	–	–	–	–	–	–	–	–	–	–	–	–	–	0.368	0.413	0.14
NCI-H727	1.28	1.15	0.958	1.04	0.642	0.642	0.61	0.563	0.714	0.57	0.533	0.551	0.536	0.545	0.446	0.612	0.601	0.679
NCI-H838	0.719	0.741	0.708	0.555	0.372	0.213	0.221	0.233	0.26	0.214	0.409	0.379	0.37	0.333	0.424	0.737	0.611	0.252
NCI-H1944	0.522	0.58	0.529	0.533	0.369	0.33	0.298	0.322	0.311	0.216	0.398	0.433	0.408	0.396	0.382	0.373	0.421	0.419
SK-LU-1	0.784	0.884	0.843	0.829	0.567	0.371	0.354	0.407	0.455	0.311	0.332	0.199	0.37	0.348	0.301	0.483	0.425	0.352
LC-2-ad	0.721	0.716	0.703	0.658	0.538	0.501	0.553	0.477	0.482	0.451	0.848	0.761	0.777	0.675	0.446	0.75	0.675	0.464
LOU-NH91	1.04	0.842	0.833	0.703	0.43	0.574	0.445	0.529	0.581	0.515	0.76	0.604	0.599	0.502	0.515	0.888	–	0.657
NCI-H2009	0.766	0.639	0.764	0.705	0.506	0.219	0.191	0.263	0.258	0.276	0.643	0.6	0.687	0.644	0.59	0.657	0.665	0.634
NCI-H647	0.479	0.465	0.664	0.427	0.262	0.417	0.345	0.383	0.386	0.253	0.572	0.554	0.73	0.596	0.674	0.434	0.562	0.16
